Source: US20250002450A1, “CATIONIC STEROID COMPOUNDS, METHOD OF OBTAINING THEREOF, FORMULATIONS COMPRISING THEREOF AND THEIR USES” (UNIVERSIDADE DO PORTO, priority 2021, published 2025)
Values after ≈ are worked out from the molar mass of the structure shown.

What was measured:
Test in all cases: Antibacterial MIC/MBC (broth microdilution)
[1] = system: C. jejuni P5/4; format: cell-based, Campylobacter jejuni; conditions: Campylobacter jejuni; for MBC: read-out: MBC; for MIC: read-out: MIC
Text: (§1) Twelve reference bacterial strains and nine MDR clinically relevant bacterial strains were used in this study. Gram-negative bacteria comprised reference strains E. coli ATCC 25922, K. pneumoniae ATCC 13883, Salmonella enterica serovar Typhimurium CECT 443, P. aeruginosa ATCC 27853, A. baumannii ATCC 19606, C. jejuni ATCC 33560 (ATCC—American Type Culture Collection; CECT—Colección Espanola de Cultivos Tipo); clinical isolates E. coli SA/2, an extended-spectrum β-lactamase (ESBL)-producing strain and P. aeruginosa 33b, a pan-drug-resistant isolate; and animal isolates C. jejuni P5/4, a ciprofloxacin-resistant strain, C. jejuni 4432, C. jejuni 4433, C. jejuni 4448, and E. coli 2252, a COL-resistant strain [42]. Gram-positive strains included S. aureus ATCC 29213, E. faecalis ATCC 29212, S. pyogenes ATCC 19615, and environmental isolates methicillin-resistant S. aureus (MRSA) 66/1 [43], and VAN-resistant enterococci (VRE) E. faecalis B3/101 [44]. Gram-negative fish pathogens Yersinia ruckeri ATCC 29473, Listonella anguillarum ATCC 1924, and Tenacibaculum maritimum ATCC 43397 were also included.
(§2) Strains were kept in Trypto-Casein Soy agar (TSA—Biokar Diagnostics, Allone, Beauvais, France) slants and, before each assay, were sub-cultured in Mueller-Hinton agar (MHA—Biokar Diagnostics, Allone, Beauvais, France). Y. ruckeri ATCC 29473 and L. anguillarum ATCC 1924 were kept in Nutrient Agar (Condalab, Madrid, Spain) and T. maritimum ATCC 43397 was kept in TMM agar (Condalab, Madrid, Spain), and were sub-cultured in the respective culture media before each assay. For S. pyogenes ATCC 19615, CAMHB was supplemented with 3.75% lysed horse blood (LBH—Oxoid, Basingstoke, England), whereas for C. jejuni it was supplemented with 2.5% LHB. Colony-forming unit counts of the inoculum were conducted to determine the initial inoculum size (which should be approximately 5×10^5 CFU/mL). Sterility and growth controls were included in each assay. The 96-well U-shaped untreated polystyrene microtiter plates were incubated for 20 h at 37 degrees C. (42 degrees C. for C. jejuni, in a microaerophilic atmosphere) and the minimal inhibitory concentration (MIC) was determined as the lowest concentration of compound that prevented visible growth. The minimal bactericidal concentration (MBC) was determined by spreading 100 μL of the content of the wells with no visible growth on MH plates. The MBC was determined as the lowest concentration of compound that killed 99.9% of the initial inoculum after overnight incubation at 37 degrees C. Two independent assays were performed for reference and MDR strains.
(§3) An initial screening of the antibacterial activity of the compounds was performed by the Kirby-Bauer disk diffusion method, as recommended by the Clinical and Laboratory Standards Institute (CLSI). Briefly, sterile 6 mm blank paper disks (Oxoid, Basingstoke, England) impregnated with 15 μg of each compound were placed on inoculated MH agar plates. A blank disk with dimethylsulfoxide (DMSO) was used as a negative control. MH inoculated plates were incubated for 18-20 h at 37 degrees C. At the end of incubation, the inhibition halos where measured. The MIC was used to determine the antibacterial activity of each compound, in accordance with the recommendations of the CLSI. Two-fold serial dilutions of the compounds were prepared in Mueller-Hinton Broth 2 (MHB2—Sigma-Aldrich, St. Louis, MO, USA) within the concentration range of 0.062-64 μg/mL. CTX ranging between 0.031-16 μg/mL was used as a control. Sterility and growth controls were included in each assay. Purity checks and colony counts of the inoculum suspensions were also performed in order to ensure that the final inoculum density closely approximates the intended number (5×10^5 CFU/mL). The MIC was determined as the lowest concentration of compound that inhibited growth of the bacteria. The MBC was assessed by spreading 10 μL of culture collected from wells showing no visible growth on MH agar plates. […]

[2] = system: C. jejuni 4432; format: cell-based, Campylobacter jejuni; conditions: Campylobacter jejuni; for MBC: read-out: MBC; for MIC: read-out: MIC
Text: as §1, §2, §3

[3] = system: C. jejuni 4448; format: cell-based, Campylobacter jejuni; conditions: Campylobacter jejuni; for MBC: read-out: MBC; for MIC: read-out: MIC
Text: as §1, §2, §3

[4] = system: C. jejuni 4433; format: cell-based, Campylobacter jejuni; conditions: Campylobacter jejuni; for MBC: read-out: MBC; for MIC: read-out: MIC
Text: as §1, §2, §3

[5] = system: Streptococcuss pyogenes ATCC 19615; format: cell-based, Streptococcus pyogenes; conditions: Streptococcus pyogenes, ATCC19615, Streptococcuss pyogenes ATCC 19615; for MBC: read-out: MBC; for MIC: read-out: MIC
Text: as §1, §2, §3

[6] = system: S. aureus 66/1 (MRSA); format: cell-based, Staphylococcus aureus; conditions: Staphylococcus aureus; for MBC: read-out: MBC; for MIC: read-out: MIC
Text: as §1, §2, §3

[7] = system: Acinetobacter baumannii ATCC 19606; format: cell-based; conditions: for MBC / MIC: ATCC19606, Acinetobacter baumannii ATCC 19606; for MBC: read-out: MBC; for MIC: read-out: MIC
Text: as §1, §2, §3

[8] = system: Klebsiella pneumoniae ATCC 13883; format: cell-based; conditions: ATCC13883, Klebsiella pneumoniae ATCC 13883; for MBC: read-out: MBC; for MIC: read-out: MIC
Text: as §1, §2, §3

[9] = system: Listonella anguilarum ATCC 1924; format: cell-based; conditions: for MBC / MIC: Listonella anguilarum ATCC 1924; for MBC: read-out: MBC; for MIC: read-out: MIC
Text: as §1, §2, §3

[10] = system: Staphylococcus aureus ATCC 29213; format: cell-based; conditions: for MBC: ATCC29213, read-out: MBC; for MIC: ATCC29213, read-out: MIC
Text: as §1, §2, §3

[11] = system: Yersinia ruckeri ATCC 29473; format: cell-based; conditions: for MBC: ATCC29473, read-out: MBC; for MIC: ATCC29473, read-out: MIC
Text: as §1, §2, §3

[12] = system: Escherichia coli ATCC 25922; format: cell-based; conditions: ATCC25922, Escherichia coli ATCC 25922; for MBC: read-out: MBC; for MIC: read-out: MIC
Text: as §1, §2, §3

[13] = system: Salmonella enterica serovar Typhimurium CECT 443; format: cell-based; conditions: for MBC: read-out: MBC; for MIC: read-out: MIC
Text: as §1, §2, §3

[14] = system: Pseudomonas aeruginosa ATCC 27853; format: cell-based; conditions: ATCC27853, Pseudomonas aeruginosa ATCC 27853; for MBC: read-out: MBC; for MIC: read-out: MIC
Text: as §1, §2, §3

[15] = system: E. faecalis B3/101 (VRE); format: cell-based, Enterococcus faecalis; conditions: Enterococcus faecalis, E. faecalis B3/101 (VRE); for MBC: read-out: MBC; for MIC: read-out: MIC
Text: as §1, §2, §3

[16] = system: Enterococcuss faecalis ATCC 29212; format: cell-based, Enterococcus faecalis; conditions: for MBC / MIC: Enterococcus faecalis, ATCC29212, Enterococcuss faecalis ATCC 29212; for MBC: read-out: MBC; for MIC: read-out: MIC
Text: as §1, §2, §3

SMILES | MBC [1] | MIC [1] | MBC [2] | MIC [2] | MBC [3] | MIC [3] | MBC [4] | MIC [4] | MBC [5] | MIC [5] | MBC [6] | MIC [6] | MBC [7] | MIC [7] | MBC [8] | MIC [8] | MBC [9] | MIC [9] | MBC [10] | MIC [10] | other results
C[C@H](CCC(=O)N1CCOCC1)[C@H]1CC[C@H]2[C@@H]3CC[C@@H]4C[C@H](O)CC[C@]4(C)[C@H]3C[C@H](O)[C@]12C [Compound 3, (R)-4-((3R,5R,8R,9S,10S,12S,13R,14S,17R)-3,12-dihydroxy-10,13-dimethylhexadecahydro-1H-cyclopenta[a]phenanthren-17-yl)-1-morpholinopentan-1-one] | > 64 µg/mL | > 64 µg/mL | > 64 µg/mL | > 64 µg/mL | > 64 µg/mL | > 64 µg/mL | > 64 µg/mL | > 64 µg/mL | > 64 µg/mL | > 64 µg/mL | > 64 µg/mL | > 64 µg/mL | > 64 µg/mL | > 64 µg/mL | > 64 µg/mL | > 64 µg/mL | > 64 µg/mL | > 64 µg/mL | > 64 µg/mL | > 64 µg/mL | MBC [11]: > 64 µg/mL; MIC [11]: > 64 µg/mL; MBC [12]: > 64 µg/mL; MIC [12]: > 64 µg/mL; MBC [13]: > 64 µg/mL; MIC [13]: > 64 µg/mL; MBC [14]: > 64 µg/mL; MIC [14]: > 64 µg/mL; MBC [15]: > 64 µg/mL; MIC [15]: > 64 µg/mL; MBC [16]: > 64 µg/mL; MIC [16]: > 64 µg/mL
C[C@H](CCC(=O)NCCNc1ccccc1)[C@H]1CC[C@H]2[C@@H]3CC[C@@H]4C[C@H](O)CC[C@]4(C)[C@H]3C[C@H](O)[C@]12C [Compound 8, (R)-4-((3R,5R,8R,9S,10S,12S,13R,14S,17R)-3,12-dihydroxy-10,13-dimethylhexadecahydro-1H-cyclopenta[a]phenanthren-17-yl)-N-(2-(phenylamino)ethyl)pentanamide] | > 64 µg/mL | > 64 µg/mL | > 64 µg/mL | > 64 µg/mL | > 64 µg/mL | > 64 µg/mL | > 64 µg/mL | > 64 µg/mL | > 64 µg/mL | > 64 µg/mL | > 64 µg/mL | > 64 µg/mL | > 64 µg/mL | > 64 µg/mL | > 64 µg/mL | > 64 µg/mL | > 64 µg/mL | > 64 µg/mL | > 64 µg/mL | 16 µg/mL (≈ 31.3 µM) | MBC [11]: > 64 µg/mL; MIC [11]: > 64 µg/mL; MBC [12]: > 64 µg/mL; MIC [12]: > 64 µg/mL; MBC [13]: > 64 µg/mL; MIC [13]: > 64 µg/mL; MBC [14]: > 64 µg/mL; MIC [14]: > 64 µg/mL; MBC [15]: > 64 µg/mL; MIC [15]: > 64 µg/mL; MBC [16]: > 64 µg/mL; MIC [16]: > 64 µg/mL
C[C@H](CCC(=O)N1CCN(C(=O)OC(C)(C)C)CC1)[C@H]1CC[C@H]2[C@@H]3CC[C@@H]4C[C@H](O)CC[C@]4(C)[C@H]3C[C@H](O)[C@]12C [Compound 5, tert-butyl 4-((R)-4-((3R,5R,8R,9S,10S,12S,13R,14S,17R)-3,12-dihydroxy-10,13-dimethylhexadecahydro-1H-cyclopenta[a]phenanthren-17-yl)pentanoyl)piperazine-1-carboxylate] | > 64 µg/mL | > 64 µg/mL | > 64 µg/mL | > 64 µg/mL | > 64 µg/mL | > 64 µg/mL | > 64 µg/mL | > 64 µg/mL | > 64 µg/mL | > 64 µg/mL | > 64 µg/mL | 64 µg/mL (≈ 114 µM) | > 64 µg/mL | > 64 µg/mL | > 64 µg/mL | > 64 µg/mL | > 64 µg/mL | > 64 µg/mL | > 64 µg/mL | 16 µg/mL (≈ 28.5 µM) | MBC [11]: > 64 µg/mL; MIC [11]: > 64 µg/mL; MBC [12]: > 64 µg/mL; MIC [12]: > 64 µg/mL; MBC [13]: > 64 µg/mL; MIC [13]: > 64 µg/mL; MBC [14]: > 64 µg/mL; MIC [14]: > 64 µg/mL; MBC [15]: > 64 µg/mL; MIC [15]: > 64 µg/mL; MBC [16]: > 64 µg/mL; MIC [16]: > 64 µg/mL
CCN(CC)CCNC(=O)CC[C@@H](C)[C@H]1CC[C@H]2[C@@H]3CC[C@@H]4C[C@H](O)CC[C@]4(C)[C@H]3C[C@H](O)[C@]12C [Compound 6, (R)—N-(2-(diethylamino)ethyl)-4-((3R,5R,8R,9S,10S,12S,13R,14S,17R)-3,12-dihydroxy-10,13-dimethylhexadecahydro-1H-cyclopenta[a]phenanthren-17-yl)pentanamide] | > 64 µg/mL | > 64 µg/mL | > 64 µg/mL | > 64 µg/mL | > 64 µg/mL | > 64 µg/mL | > 64 µg/mL | > 64 µg/mL | > 64 µg/mL | > 64 µg/mL | 64 µg/mL (≈ 130 µM) | 64 µg/mL (≈ 130 µM) | 64 µg/mL (≈ 130 µM) | 64 µg/mL (≈ 130 µM) | > 64 µg/mL | > 64 µg/mL | 64 µg/mL (≈ 130 µM) | 64 µg/mL (≈ 130 µM) | 64 µg/mL (≈ 130 µM) | 64 µg/mL (≈ 130 µM) | antibacterial activity (in words) ([7]; A. baumannii ATCC 19606): displayed an inhibitory effect; antibacterial activity (in words) ([9]; Listonella anguilarum): active; MBC [11]: > 64 µg/mL; MIC [11]: > 64 µg/mL; MBC [12]: > 64 µg/mL; MIC [12]: 64 µg/mL (≈ 130 µM); MBC [13]: > 64 µg/mL; MIC [13]: > 64 µg/mL; MBC [14]: > 64 µg/mL; MIC [14]: > 64 µg/mL; MBC [15]: > 64 µg/mL; MIC [15]: > 64 µg/mL; antibacterial activity (in words) ([16]; E. faecalis ATCC 29212): exhibited antimicrobial activity; MBC [16]: 64 µg/mL (≈ 130 µM); MIC [16]: 64 µg/mL (≈ 130 µM)
